# Test system: Sprague Dawley rats
# Test: Injection site reaction recovery study (10 days) after ID ZA with or without rHuPH20
# Type: in vivo, rat
# Method: Sprague Dawley rats were randomized to three groups of 4 rats each. ZA (0.1 ml at 0.1 mg/mL), either alone or supplemented with either 130 U/mL or 100,000 U/mL rHuPH20, was given via intradermal injection. Injection sites were observed and measured daily. Animals were sacrificed at 10 days post-injection and skin from lesion areas were dissected, fixed in 10% buffered formalin, embedded in paraffin and stained with H&E.
smiles,measurement,setting,value
"O=P(O)(O)C(O)(Cn1ccnc1)P(=O)(O)O [ZA, 1-hydroxy-2-(1H-imidazol-1-yl)ethylidene-1,1-bisphosphonic acid]",time to peak lesion area,"rat ID 0.1 ml, ZA 0.1 mg/mL alone or with 130 or 100,000 U/mL rHuPH20",3 days
same,histopathologic findings,"rat ID, ZA 0.1 mg/mL alone, 10 days post-injection","scabbing, epidermal necrosis, infiltration, vessel dilation and hemorrhage"

# From patent US20090311237A1, “Combination therapy using a soluble hyaluronidase and a bisphosphonate” (priority 2008, published 2009)
